In patent publication US12466822B2, “Heterocyclic compounds as immunomodulators” (Incyte Corporation, priority 2016, dated 2025):

Each molecule was assayed against T1, PD-1/PD-L1 protein/protein interaction (recombinant human PD-L1 protein (19-238), recombinant human PD-1 protein (25-167)) (Homo sapiens, UniProt Q9NZQ7) (assay: PD-1/PD-L1 Homogeneous Time-Resolved Fluorescence (HTRF) Binding Assay). Details: 25° C., PBS buffer (pH 7.4), 40 minutes preincubation with inhibitors.
T1 construct: Recombinant human PD-L1 protein (19-238) with a His-tag at the C-terminus; purchased AcroBiosystems PD1-H5229 (PD-L1-His); PD1-H5257 (PD-1-Fc)
Protocol: The assays were conducted in a standard black 384-well polystyrene plate with a final volume of 20 μL. Inhibitors were first serially diluted in DMSO and then added to the plate wells before the addition of other reaction components. The final concentration of DMSO in the assay was 1%. The assays were carried out at 25° C. in the PBS buffer (pH 7.4) with 0.05% Tween-20 and 0.1% BSA. Recombinant human PD-L1 protein (19-238) with a His-tag at the C-terminus was purchased from AcroBiosystems (PD1-H5229). Recombinant human PD-1 protein (25-167) with Fc tag at the C-terminus was also purchased from AcroBiosystems (PD1-H5257). PD-L1 and PD-1 proteins were diluted in the assay buffer and 10 μL was added to the plate well. Plates were centrifuged and proteins were preincubated with inhibitors for 40 minutes. The incubation was followed by the addition of 10 μL of HTRF detection buffer supplemented with Europium cryptate-labeled anti-human IgG (PerkinElmer-AD0212) specific for Fc and anti-His antibody conjugated to SureLight®-Allophycocyanin (APC, PerkinElmer-AD0059H). After centrifugation, the plate was incubated at 25° C. for 60 min. before reading on a PHERAstar FS plate reader (665 nm/620 nm ratio). Final concentrations in the assay were […], 10 nM PD-L1, 1 nM europium anti-human IgG and 20 nM anti-His-Allophycocyanin. IC50 determination was performed by fitting the curve of percent control activity versus the log of the inhibitor concentration using the GraphPad Prism 5.0 software.

T1 sequence (Q9NZQ7 19-238): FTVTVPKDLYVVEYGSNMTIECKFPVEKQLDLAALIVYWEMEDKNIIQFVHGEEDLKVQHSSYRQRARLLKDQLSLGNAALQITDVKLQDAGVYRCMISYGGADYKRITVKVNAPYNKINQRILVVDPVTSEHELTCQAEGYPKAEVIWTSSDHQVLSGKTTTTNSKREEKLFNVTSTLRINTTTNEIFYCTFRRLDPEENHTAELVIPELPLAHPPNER

IC50, ≤ 10 nM:
Cc1c(Nc2nccc3cc(CN4CC[C@@H](O)C4)cnc23)cccc1-c1cccc(NC(=O)c2nc3c(n2C)CCN(CC[C@H]2CC[C@H](C(=O)O)CC2)C3)c1Cl (single isomer, unassigned) [Example 52]
Cc1c(Nc2nccc3cc(CN4CC[C@@H](O)C4)cnc23)cccc1-c1cccc(NC(=O)c2nc3c(n2C)CCN(CC[C@H]2CC[C@@H](C(=O)O)CC2)C3)c1Cl (single isomer, unassigned) [Example 53]
Cc1c(NC(=O)c2nc3c(n2C)CCN(C2CCC(C)(C(=O)O)CC2)C3)cccc1-c1cccc(Nc2nccc3cc(CN4CC[C@@H](O)C4)cnc23)c1C (single isomer, unassigned) [Example 62-peak1]
Cc1c(NC(=O)c2nc3c(n2C)CCN(C2CCC(C)(C(=O)O)CC2)C3)cccc1-c1cccc(Nc2nccc3cc(CN4CC[C@@H](O)C4)cnc23)c1C (single isomer, unassigned) [Example 62-peak2]
Cc1c(NC(=O)c2nc3c(n2C)CCN(C2CCC(C(=O)O)CC2)C3)cccc1-c1cccc(Nc2nccc3cc(CN4CC[C@@H](O)C4)cnc23)c1C (single isomer, unassigned) [Example 64-peak1]
Cc1c(NC(=O)c2nc3c(n2C)CCN(C2CCC(C(=O)O)CC2)C3)cccc1-c1cccc(Nc2nccc3cc(CN4CC[C@@H](O)C4)cnc23)c1C (single isomer, unassigned) [Example 64-peak2]
Cc1c(Nc2ncnc3cc(CN4CC[C@@H](O)C4)cnc23)cccc1-c1cccc(NC(=O)c2nc3c(n2C)CCN(C2CCC(C)(C(=O)O)CC2)C3)c1Cl (single isomer, unassigned) [Example 68-peak1]
Cc1c(Nc2ncnc3cc(CN4CC[C@@H](O)C4)cnc23)cccc1-c1cccc(NC(=O)c2nc3c(n2C)CCN(C2CCC(C)(C(=O)O)CC2)C3)c1Cl (single isomer, unassigned) [Example 68-peak2]
Cc1c(-c2nc3c(s2)CNCC3)cccc1-c1cccc(Nc2nccc3cc(CNCCO)cnc23)c1Cl [Example 1, 2-(((8-((2-chloro-2′-methyl-3′-(4,5,6,7-tetrahydrothiazolo[5,4-c]pyridin-2-yl)-[1,1′-biphenyl]-3-yl)amino)-1,7-naphthyridin-3-yl)methyl)amino)ethan-1-ol]
Cc1c(Nc2nccc3cc(CNCCO)cnc23)cccc1-c1cccc(NC(=O)c2ccc(CNC3(C(=O)O)CCC3)cn2)c1F [Example 2, 1-(((6-(2-fluoro-3′-(3-((2-hydroxyethylamino)methyl)-1,7-naphthyridin-8-ylamino)-2′-methylbiphenyl-3-ylcarbamoyl)pyridin-3-yl)methyl)amino)cyclobutanecarboxylic acid]
Cc1c(Nc2nccc3cc(CNCCO)cnc23)cccc1-c1cccc(NC(=O)c2ccc(CN3CCCC[C@H]3C(=O)O)cn2)c1F [Example 3, (S)-1-((6-((2-fluoro-3′-((3-(((2-hydroxyethyl)amino)methyl)-1,7-naphthyridin-8-yl)amino)-2′-methyl-[1,1′-biphenyl]-3-yl)carbamoyl)pyridin-3-yl)methyl)piperidine-2-carboxylic acid]
Cc1c(Nc2nccc3cc(CNCCO)cnc23)cccc1-c1cccc(NC(=O)c2ccc(CNCCO)cn2)c1F [Example 4, N-(2-fluoro-3′-((3-(((2-hydroxyethyl)amino)methyl)-1,7-naphthyridin-8-yl)amino)-2′-methyl-[1,1′-biphenyl]-3-yl)-5-(((2-hydroxyethyl)amino)methyl)picolinamide]
Cc1c(Nc2nccc3cc(CNCCO)cnc23)cccc1-c1cccc(NC(=O)c2ccc(CNCCO)cn2)c1Cl [Example 5, N-(2-chloro-3′-((3-(((2-hydroxyethyl)amino)methyl)-1,7-naphthyridin-8-yl)amino)-2′-methyl-[1,1′-biphenyl]-3-yl)-5-(((2-hydroxyethyl)amino)methyl)picolinamide]
Cc1c(Nc2nccc3cc(CN4CC[C@@H](O)C4)cnc23)cccc1-c1cccc(NC(=O)c2ccc(CN3CC[C@@H](O)C3)cn2)c1Cl [Example 6, N-(2-chloro-3′-((3-(((R)-3-hydroxypyrrolidin-1-yl)methyl)-1,7-naphthyridin-8-yl)amino)-2′-methyl-[1,1′-biphenyl]-3-yl)-5-(((R)-3-hydroxypyrrolidin-1-yl)methyl)picolinamide]
Cc1c(Nc2nccc3cc(CN4CC[C@@H](C(=O)O)C4)cnc23)cccc1-c1cccc(NC(=O)c2ccc(CN3CC[C@@H](O)C3)cn2)c1Cl [Example 7, (R)-1-((8-((2′-chloro-3′-(5-(((R)-3-hydroxypyrrolidin-1-yl)methyl)picolinamido)-2-methyl-[1,1′-biphenyl]-3-yl)amino)-1,7-naphthyridin-3-yl)methyl)pyrrolidine-3-carboxylic acid]
Cc1c(Nc2nccc3cc(CN4CC(C(=O)O)C4)cnc23)cccc1-c1cccc(NC(=O)c2ccc(CN3CC[C@@H](O)C3)cn2)c1Cl [Example 8, (R)-1-((8-((2′-chloro-3′-(5-((3-hydroxypyrrolidin-1-yl)methyl)picolinamido)-2-methyl-[1,1′-biphenyl]-3-yl)amino)-1,7-naphthyridin-3-yl)methyl)azetidine-3-carboxylic acid]
Cc1c(Nc2nccc3cc(CN4CC[C@@H](O)C4)cnc23)cccc1-c1cccc(Nc2nccc3cc(CN4CC[C@@H](C(=O)O)C4)cnc23)c1C [Example 9, (R)-1-((8-((3′-((3-(((R)-3-hydroxypyrrolidin-1-yl)methyl)-1,7-naphthyridin-8-yl)amino)-2,2′-dimethyl-[1,1′-biphenyl]-3-yl)amino)-1,7-naphthyridin-3-yl)methyl)pyrrolidine-3-carboxylic acid]
Cc1c(Nc2nccc3cc(CN4CC[C@@H](O)C4)cnc23)cccc1-c1cccc(Nc2nccc3cc(CN4CC[C@H](C(=O)O)C4)cnc23)c1C [Example 10, (S)-1-((8-((3′-((3-(((R)-3-hydroxypyrrolidin-1-yl)methyl)-1,7-naphthyridin-8-yl)amino)-2,2′-dimethyl-[1,1′-biphenyl]-3-yl)amino)-1,7-naphthyridin-3-yl)methyl)pyrrolidine-3-carboxylic acid]
Cc1c(Nc2nccc3cc(CNCCO)cnc23)cccc1-c1cccc(Nc2nccc3cc(CN4CC[C@@H](C(=O)O)C4)cnc23)c1C [Example 11, (R)-1-((8-((3′-((3-(((2-hydroxyethyl)amino)methyl)-1,7-naphthyridin-8-yl)amino)-2,2′-dimethyl-[1,1′-biphenyl]-3-yl)amino)-1,7-naphthyridin-3-yl)methyl)pyrrolidine-3-carboxylic acid]
Cc1c(Nc2nccc3cc(CN4CC[C@H](O)C4)cnc23)cccc1-c1cccc(Nc2nccc3cc(CN4CC[C@@H](C(=O)O)C4)cnc23)c1C [Example 12, (R)-1-((8-((3′-((3-(((S)-3-hydroxypyrrolidin-1-yl)methyl)-1,7-naphthyridin-8-yl)amino)-2,2′-dimethyl-[1,1′-biphenyl]-3-yl)amino)-1,7-naphthyridin-3-yl)methyl)pyrrolidine-3-carboxylic acid]
Cc1c(Nc2nccc3cc(CN4CC[C@H](O)C4)cnc23)cccc1-c1cccc(Nc2nccc3cc(CN4CC[C@H](C(=O)O)C4)cnc23)c1C [Example 13, (S)-1-((8-((3′-((3-(((S)-3-hydroxypyrrolidin-1-yl)methyl)-1,7-naphthyridin-8-yl)amino)-2,2′-dimethyl-[1,1′-biphenyl]-3-yl)amino)-1,7-naphthyridin-3-yl)methyl)pyrrolidine-3-carboxylic acid]
Cc1c(NC(=O)c2nc3c(n2C)CCN(C)C3)cccc1-c1cccc(Nc2nccc3cc(CN4CC(C(=O)O)C4)cnc23)c1Cl [Example 14, 1-((8-(2-chloro-3′-(1,5-dimethyl-4,5,6,7-tetrahydro-1H-imidazo[4,5-c]pyridine-2-carboxamido)-2′-methylbiphenyl-3-ylamino)-1,7-naphthyridin-3-yl)methyl)azetidine-3-carboxylic acid]
Cc1c(Nc2nccc3cc(CN4CC[C@@H](O)C4)cnc23)cccc1-c1cccc(NC(=O)c2cc(CN3CC[C@@H](C(=O)O)C3)cn(C)c2=O)c1Cl [Example 15, (R)-1-((5-(2-chloro-3′-(3-(((R)-3-hydroxypyrrolidin-1-yl)methyl)-1,7-naphthyridin-8-ylamino)-2′-methylbiphenyl-3-ylcarbamoyl)-1-methyl-6-oxo-1,6-dihydropyridin-3-yl)methyl)pyrrolidine-3-carboxylicacid]
Cn1cc(CN2CC[C@@H](O)C2)cc(C(=O)Nc2cccc(-c3cccc(Nc4nccc5cc(CN6CC(C(=O)O)C6)cnc45)c3Cl)c2Cl)c1=O [Example 16, (R)-1-((8-(2,2′-dichloro-3′-(5-((3-hydroxypyrrolidin-1-yl)methyl)-1-methyl-2-oxo-1,2-dihydropyridine-3-carboxamido)biphenyl-3-ylamino)-1,7-naphthyridin-3-yl)methyl)azetidine-3-carboxylic acid]
